Test results as given in US20220220125A1, “FUSED ISOINDOLIN-1-ONE DERIVATIVES USEFUL AS GRK2 INHIBITORS” (Janssen Pharmaceutica NV, priority 2019, published 2022).
pIC50: −log10 of the molar value.

These compounds were tested against T1, GRK2 (Homo sapiens, UniProt P25098) (assay: hGRK2 LANCE Ultra in vitro kinase assay). Settings: 10 nM GRK2; ATP 30 or 600 μM (not stated which); read-out: GRK2 Lancer IC50.
T1 sequence (P25098 1-689): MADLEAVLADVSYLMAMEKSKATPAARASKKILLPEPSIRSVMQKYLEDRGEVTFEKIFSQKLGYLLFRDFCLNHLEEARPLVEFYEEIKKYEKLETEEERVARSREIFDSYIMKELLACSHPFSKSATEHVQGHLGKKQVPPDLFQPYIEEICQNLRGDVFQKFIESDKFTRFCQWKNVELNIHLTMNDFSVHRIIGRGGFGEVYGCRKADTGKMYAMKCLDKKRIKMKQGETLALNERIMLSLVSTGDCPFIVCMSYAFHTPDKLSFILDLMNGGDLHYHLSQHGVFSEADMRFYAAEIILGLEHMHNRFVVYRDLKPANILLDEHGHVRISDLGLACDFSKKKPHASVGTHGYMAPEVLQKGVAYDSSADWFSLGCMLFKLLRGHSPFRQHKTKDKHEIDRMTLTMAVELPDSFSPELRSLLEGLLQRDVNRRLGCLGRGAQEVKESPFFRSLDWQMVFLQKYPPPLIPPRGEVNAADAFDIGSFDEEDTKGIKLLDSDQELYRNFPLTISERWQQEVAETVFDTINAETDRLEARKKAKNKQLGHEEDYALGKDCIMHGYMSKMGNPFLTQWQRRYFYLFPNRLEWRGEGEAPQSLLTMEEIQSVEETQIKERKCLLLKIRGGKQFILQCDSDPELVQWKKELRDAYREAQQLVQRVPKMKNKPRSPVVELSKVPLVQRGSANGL
Assay type: biochemical
Method: hGRK2 LANCER In Vitro Assay
This assay is sensitive and requires as low as 10 nM enzyme, in a total volume of 10 μL. In addition, the ATP concentration can be varied over a broad range, without interfering with the assay or changing the assay condition. […] Testing inhibitors routinely at both high and low ATP concentrations also enables identification of potential non-ATP competitive inhibitors.
This assay measures IC50 values of test compounds (inhibitors) by monitoring GRK2 enzymatic activity at varying inhibitor concentrations.
Test compounds were dissolved in DMSO at 1 mM and were 3-fold serial diluted. The compound DMSO solutions were then added (100 nL) into a plate well using an acoustic dispenser. To each well was then added 20 nM GRK2 (5 μL) in assay buffer (20 mM HEPES, pH 7.5, 10 mM MgCl2, 0.001% Tween-20). The plate was sealed and centrifuged at 1000 rpm for 1 min. The plate and wells containing a mixture of GRK2 and test compound were incubated at ambient temperature for 30 min (prior to initializing the enzymatic reaction).
Enzyme reactions were initiated by the addition of 4.9 μL Substrates/Eu-Ab mix to each well. […] Final concentrations of reagents in the assays were as follows: 20 mM HEPES, pH 7.5; 10 mM MgCl2; 0.001% Tween-20 (w/v); 30 or 600 μM ATP; 200 nM ULight-peptide; 4 nM Eu-Ab; 10 nM GRK2; and 1% DMSO.
The plates were sealed and centrifuged at 1000 rpm for 1 min. For reactions at low ATP concentration (30 μM), reaction mixtures were incubated at ambient temperature for 120 min. For reactions at high ATP concentration (600 μM), reaction mixtures were incubated at ambient temperature for 60 min.
The enzyme reactions were quenched by addition of 10 μL of 12 mM EDTA in 1× LANCE detection solution to each well. The plates were then incubated at ambient temperature for 30 min. Time-resolved fluorescence signal of reactions were read on an EnVision or PHERAstar plate reader with the following parameters: Excitation wavelength=337 nm, emission wavelength (donor)=620 nm; emission wavelength (acceptor)=665 nm.
The raw HTRF data were converted to % active as follows:
% active=(sample−NC)/(PC−NC)*100
where NC is the mean of negative control (reactions without GRK2), and PC is the mean of positive control (reactions with GRK2 but without inhibitor). IC50 values were determined from a 4-parameter fit, using the following equation:
Y=Bottom+(Top−Bottom)/(1+10^((Log IC50-X)*Hill slope)),
where X=log10 of the compound concentration.

pIC50	Compound
6.78	COc1cccc([C@H]2COC/C=C\CC3c4ccc(-c5cn[nH]c5)cc4C(=O)N32)c1 (mixture of isomers) [Compound 8]
5.85	COc1cccc([C@H]2COCCCCC3c4ccc(-c5cn[nH]c5)cc4C(=O)N32)c1 (mixture of isomers) [Compound 9]
5.99	COc1cccc([C@H]2COC/C=C\CC3c4ccc(-c5cn[nH]c5)nc4C(=O)N32)c1 (mixture of isomers) [Compound 14]
8.22	COc1cccc(N2CCCCC3c4ccc(-c5cn[nH]c5)cc4C(=O)N32)c1 (racemic) [Compound 15, (Rac)-1-(3-methoxyphenyl)-8-(1H-pyrazol-4-yl)-1,2,3,4,5,5a-hexahydro-10H-[1,2]diazepino[7,1-a]isoindol-10-one]
8.10	COc1cccc(N2CC=CCC3c4ccc(-c5cn[nH]c5)cc4C(=O)N32)c1 (racemic) [Compound 16, 1-(3-methoxyphenyl)-8-(1H-pyrazol-4-yl)-1,2,5,5a-tetrahydro-10H-[1,2]diazepino[7,1-a]isoindol-10-one]
> 8.30	COc1cccc(C2CCCCC3c4ccc(-c5cn[nH]c5)cc4C(=O)N23)c1 (single isomer, unassigned) [Compound 1, (7R*)-7-(3-methoxyphenyl)-3-(1H-pyrazol-4-yl)-7,8,9,10,11,11a-hexahydro-5H-azepino[2,1-a]isoindol-5-one]
8.10	O=C1c2cc(-c3cn[nH]c3)ccc2C2CCCCC(c3cccc(O)c3)N12 (single isomer, unassigned) [Compound 2, (7S*)-7-(3-hydroxyphenyl)-3-(1H-pyrazol-4-yl)-7,8,9,10,11,11a-hexahydro-5H-azepino[2,1-a]isoindol-5-one]
8.05	COc1cccc(C2CCCCC3c4ccc(-c5cn[nH]c5)cc4C(=O)N23)c1 (single isomer, unassigned) [Compound 3, (7S*)-7-(3-methoxyphenyl)-3-(1H-pyrazol-4-yl)-7,8,9,10,11,11a-hexahydro-5H-azepino[2,1-a]isoindol-5-one]
7.96	COc1cccc(C2CCCCC3c4ccc(-c5cn[nH]c5)cc4C(=O)N23)c1 (single isomer, unassigned) [Compound 5]
7.92	O=C1c2cc(-c3cn[nH]c3)ccc2C2CCCCC(c3cccc(O)c3)N12 (single isomer, unassigned) [Compound 6, (7R*)-7-(3-hydroxyphenyl)-3-(1H-pyrazol-4-yl)-7,8,9,10,11,11a-hexahydro-5H-azepino[2,1-a]isoindol-5-one]
8.05	COc1cc(F)cc(C2CCCCC3c4ccc(-c5cn[nH]c5)cc4C(=O)N23)c1 (stereo not drawn) [Compound 4]
7.62	COc1cc(F)cc(C2CCCCC3c4ccc(-c5cn[nH]c5)cc4C(=O)N23)c1 (stereo not drawn) [Compound 7]
